Measurements published in PubChem BioAssay AID2060505 (Molecular Pharmacology Branch, DTP, NCI, 2025).

System: 633275-114-R-J1-PDC complex spheroids, viability
Test: Anticancer human tumor 633275-114-R-J1-PDC patient-derived endometrial adenocarcinoma cell line growth inhibition [GQUAD]
Settings: for IC50: curve of first compound; for viability, T/C: stronger effect = lower value; active means viability on the fitted dose curve at most 10% of control; inactive means the rest
How it was run: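 Tumor cells were grown as complex spheroids with HUVEC endothelial cells and mesenchymal stem cells as stroma. G-quadruplex stabilizers were combined with targeted agents over half-log dilutions from near the clinical Cmax, or from 10 microM.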

[1] = second compound 0.0316 µM, first compound 0.0316 µM
[2] = second compound 0.0316 µM, first compound 0.1 µM
[3] = second compound 0.0316 µM, first compound 0.316 µM
[4] = second compound 0.0316 µM, first compound 1 µM
[5] = second compound 0.0316 µM, first compound 3.16 µM
[6] = second compound 0.0316 µM, first compound 10 µM
[7] = second compound 0.1 µM, first compound 0.0316 µM
[8] = second compound 0.1 µM, first compound 0.1 µM
[9] = second compound 0.1 µM, first compound 0.316 µM
[10] = second compound 0.1 µM, first compound 1 µM
[11] = second compound 0.1 µM, first compound 3.16 µM
[12] = second compound 0.1 µM, first compound 10 µM
[13] = second compound 0.316 µM, first compound 0.0316 µM
[14] = second compound 0.316 µM, first compound 0.1 µM
[15] = second compound 0.316 µM, first compound 0.316 µM
[16] = second compound 0.316 µM, first compound 1 µM
[17] = second compound 0.316 µM, first compound 3.16 µM
[18] = second compound 0.316 µM, first compound 10 µM
[19] = second compound 1 µM, first compound 0.0316 µM
[20] = second compound 1 µM, first compound 0.1 µM
[21] = second compound 1 µM, first compound 0.316 µM
[22] = second compound 1 µM, first compound 1 µM
[23] = second compound 1 µM, first compound 3.16 µM
[24] = second compound 1 µM, first compound 10 µM
[25] = second compound 3.16 µM, first compound 0.0316 µM
[26] = second compound 3.16 µM, first compound 0.1 µM
[27] = second compound 3.16 µM, first compound 0.316 µM
[28] = second compound 3.16 µM, first compound 1 µM
[29] = second compound 3.16 µM, first compound 3.16 µM
[30] = second compound 3.16 µM, first compound 10 µM
[31] = second compound 10 µM, first compound 0.0316 µM
[32] = second compound 10 µM, first compound 0.1 µM
[33] = second compound 10 µM, first compound 0.316 µM
[34] = second compound 10 µM, first compound 1 µM
[35] = second compound 10 µM, first compound 3.16 µM
[36] = second compound 10 µM, first compound 10 µM
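Further: spheroids exposed to the agents for seven days.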
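Wherever viability, T/C is given: percent of DMSO vehicle control viability which is 100%.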

Cc1cccc(N(C)C(=O)C2C(O)CCN2c2nc(C)cc(C(F)(F)F)c2C#N)c1 (stereo unspecified) + Cc1cnc(CNC(=O)c2c(=O)c3ccc(N4CCCN(C)CC4)nc3n3c2sc2ccccc23)cn1
inactive: viability, T/C [1] 66.2% | viability, T/C [2] 64.1% | viability, T/C [3] 59.2% | viability, T/C [4] 65% | viability, T/C [5] 60.5% | viability, T/C [6] 67.8% | viability, T/C [7] 55.1% | viability, T/C [8] 52% | viability, T/C [9] 53.7% | viability, T/C [10] 48.3% | viability, T/C [11] 47.5% | viability, T/C [12] 46.8% | viability, T/C [13] 40% | viability, T/C [14] 41.5% | viability, T/C [15] 46% | viability, T/C [16] 50.9% | viability, T/C [17] 43.4% | viability, T/C [18] 44.5% | viability, T/C [19] 41.2% | viability, T/C [20] 42.1% | viability, T/C [21] 41.4% | viability, T/C [22] 39.9% | viability, T/C [23] 37.3% | viability, T/C [24] 37.7% | viability, T/C [25] 36.3% | viability, T/C [26] 35% | viability, T/C [27] 32.1% | viability, T/C [28] 33.5% | viability, T/C [29] 37.2% | viability, T/C [30] 35% | viability, T/C [31] 27.2% | viability, T/C [32] 33.9% | viability, T/C [33] 27.9% | viability, T/C [34] 31.4% | viability, T/C [35] 34.2% | viability, T/C [36] 24.2%
> 10000 nM: IC50 (second compound 0.0316 µM)
814 nM: IC50 (second compound 0.1 µM)
< 31.6 nM: IC50 (second compound 0.316 µM) | IC50 (second compound 1 µM) | IC50 (second compound 3.16 µM) | IC50 (second compound 10 µM)

CC1COCCN1c1cc(C2(S(C)(=N)=O)CC2)nc(-c2ccnc3[nH]ccc23)n1 (stereo unspecified) + Cc1cnc(CNC(=O)c2c(=O)c3ccc(N4CCCN(C)CC4)nc3n3c2sc2ccccc23)cn1
< 31.6 nM: IC50 (second compound 0.1 µM) | IC50 (second compound 0.316 µM) | IC50 (second compound 1 µM) | IC50 (second compound 3.16 µM) | IC50 (second compound 10 µM)
inactive: viability, T/C [1] 67.5% | viability, T/C [2] 64.5% | viability, T/C [3] 59.1% | viability, T/C [4] 49.6% | viability, T/C [5] 50.2% | viability, T/C [6] 29.7% | viability, T/C [7] 51.9% | viability, T/C [8] 47.3% | viability, T/C [9] 49.1% | viability, T/C [10] 41.5% | viability, T/C [11] 44.7% | viability, T/C [12] 27.4% | viability, T/C [13] 47.5% | viability, T/C [14] 46% | viability, T/C [15] 43.4% | viability, T/C [16] 41.1% | viability, T/C [17] 35.7% | viability, T/C [18] 24.4% | viability, T/C [19] 37.8% | viability, T/C [20] 40.3% | viability, T/C [21] 35.7% | viability, T/C [22] 37.8% | viability, T/C [23] 39% | viability, T/C [24] 27% | viability, T/C [25] 33.5% | viability, T/C [26] 34% | viability, T/C [27] 32.2% | viability, T/C [28] 30.6% | viability, T/C [29] 31.1% | viability, T/C [30] 22.7% | viability, T/C [31] 33.8% | viability, T/C [32] 28.8% | viability, T/C [33] 31.5% | viability, T/C [34] 29.1% | viability, T/C [35] 33.6% | viability, T/C [36] 23.9%
1600 nM: IC50 (second compound 0.0316 µM)

Cn1ncnc1[C@H]1c2n[nH]c(=O)c3cc(F)cc(c23)N[C@@H]1c1ccc(F)cc1 + Cc1[nH]c2ccc(F)cc2c1-c1nc2c3cccnc3c3ncccc3c2[nH]1
> 316 nM: IC50 (second compound 0.0316 µM) | IC50 (second compound 0.1 µM) | IC50 (second compound 0.316 µM) | IC50 (second compound 1 µM) | IC50 (second compound 10 µM)
257 nM: IC50 (second compound 3.16 µM)
inactive: viability, T/C (second compound 0.0316 µM, first compound 0.000999 µM) 96.6% | viability, T/C (second compound 0.0316 µM, first compound 0.00316 µM) 83.2% | viability, T/C (second compound 0.0316 µM, first compound 0.00999 µM) 83.7% | viability, T/C [1] 75.4% | viability, T/C (second compound 0.0316 µM, first compound 0.0999 µM) 66.8% | viability, T/C [3] 64.4% | viability, T/C (second compound 0.1 µM, first compound 0.000999 µM) 93% | viability, T/C (second compound 0.1 µM, first compound 0.00316 µM) 93% | viability, T/C (second compound 0.1 µM, first compound 0.00999 µM) 91.7% | viability, T/C [7] 75.5% | viability, T/C (second compound 0.1 µM, first compound 0.0999 µM) 67.1% | viability, T/C [9] 57.6% | viability, T/C (second compound 0.316 µM, first compound 0.000999 µM) 92.7% | viability, T/C (second compound 0.316 µM, first compound 0.00316 µM) 92% | viability, T/C (second compound 0.316 µM, first compound 0.00999 µM) 82.6% | viability, T/C [13] 82.4% | viability, T/C (second compound 0.316 µM, first compound 0.0999 µM) 69.1% | viability, T/C [15] 57.2% | viability, T/C (second compound 1 µM, first compound 0.000999 µM) 91% | viability, T/C (second compound 1 µM, first compound 0.00316 µM) 85.4% | viability, T/C (second compound 1 µM, first compound 0.00999 µM) 79.1% | viability, T/C [19] 72.6% | viability, T/C (second compound 1 µM, first compound 0.0999 µM) 66.6% | viability, T/C [21] 54.2% | viability, T/C (second compound 3.16 µM, first compound 0.000999 µM) 74% | viability, T/C (second compound 3.16 µM, first compound 0.00316 µM) 66.6% | viability, T/C (second compound 3.16 µM, first compound 0.00999 µM) 65.1% | viability, T/C [25] 61.2% | viability, T/C (second compound 3.16 µM, first compound 0.0999 µM) 52.3% | viability, T/C [27] 49.4% | viability, T/C (second compound 10 µM, first compound 0.000999 µM) 73.7% | viability, T/C (second compound 10 µM, first compound 0.00316 µM) 77.7% | viability, T/C (second compound 10 µM, first compound 0.00999 µM) 66.5% | viability, T/C [31] 60.2% | viability, T/C (second compound 10 µM, first compound 0.0999 µM) 55.9% | viability, T/C [33] 51.8%
